Source: US11197862B2, “Methods of preventing toxicity of platinum drugs” (XOMICS BIOPHARMA, INC., priority 2015, dated 2021)
Like-named read-outs stand apart in the source and are kept apart here.

Tests used:
OCT2 [1] = biological target: T1, OCT2 (Homo sapiens, UniProt O15244); test: Inhibition of OCT2-mediated oxaliplatin uptake in transfected MDCK-II cells (protein-free HBSS)
T1 sequence (O15244 1-555): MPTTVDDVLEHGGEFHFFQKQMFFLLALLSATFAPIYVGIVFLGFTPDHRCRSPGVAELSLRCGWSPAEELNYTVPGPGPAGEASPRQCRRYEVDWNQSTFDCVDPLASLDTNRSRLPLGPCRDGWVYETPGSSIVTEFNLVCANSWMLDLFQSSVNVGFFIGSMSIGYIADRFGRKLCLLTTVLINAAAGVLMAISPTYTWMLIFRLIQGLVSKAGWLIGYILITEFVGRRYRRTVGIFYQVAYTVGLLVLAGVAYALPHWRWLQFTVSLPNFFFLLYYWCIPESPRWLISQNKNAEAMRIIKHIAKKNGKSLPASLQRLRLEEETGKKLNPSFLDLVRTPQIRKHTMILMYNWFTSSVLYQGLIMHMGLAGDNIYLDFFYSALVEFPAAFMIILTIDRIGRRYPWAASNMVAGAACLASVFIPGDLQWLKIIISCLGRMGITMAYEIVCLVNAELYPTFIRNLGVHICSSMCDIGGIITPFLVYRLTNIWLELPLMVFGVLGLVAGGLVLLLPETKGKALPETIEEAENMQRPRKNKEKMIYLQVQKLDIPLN
Excerpt: Fully confluent MDCK cell monolayers were transfected with either cDNA plasmids encoding the human transporter to be tested or a GFP control. […] The cells were then washed with ice-cold PBS and lysed with 50:50 acetonitrile:H2O. Intracellular content of the substrate was quantified by LC/MS/MS or a MicroBeta radiometric plate reader.

OCT2 [2] = biological target: T1, OCT2; settings: OCT2-mediated uptake; ASP+ 5 μM in HBSS; from Kido Y et al. J Med Chem 2011; cited from earlier work
HepG2 cells = test: Anti-proliferation study (SRB assay) in HepG2 cells; settings: FIG. 10
Method: (§1) The potency was determined by the sulforhodamine B (SRB) assay in 96-well plates. […] Seeding density was 3000 cells/well for both cell lines.

[3] = cited from earlier work; for Plasma protein binding (%): published data
OCT2 [4] = biological target: T1, OCT2; test: Inhibition of OCT2-mediated metformin uptake in transfected MDCK-II cells
[5] = test system: MDCK cells expressing OCT2, MATE1 and MATE2K; test: LDH cytotoxicity of oxaliplatin in MDCK-II triple-transporter model; settings: for effect on oxaliplatin induced cytotoxicity in OCT2 expressing cells: buflomedil 3 and 6 μM, dolutegravir 10 μM, erlotinib 6 μM, cimetidine 6 μM, FIG. 6
Method: A triple-transporter model for OCT2(SLC22A2), MATE1(SLC47A1), and MATE2-K(SLC47A2) was created by transfecting fully confluent MDCK-II cell monolayers with DNA mixture containing the plasmids encoding OCT2, MATE1, and MATE-2K at concentrations of 40, 15, and 5 ng/μl, respectively. The OCT2 was expressed on the basolateral cell membrane, and MATE1 and MATE2-K were expressed on the apical side of the cells. […] The apical medium was adjusted to pH 6.7 with 25 mM of 2-(N-morpholino) ethanesulfonic acid (MES).
After removal of the media, a drug-free medium was added in both sides. After incubation 24 hours, the medium was collected, and the lactate dehydrogenase (LDH) activity in the medium was measured using an LDH cytotoxicity assay kit (G-Biosciences. St. Louis, Mo.; or Biochain, Newark, Calif.), according to the manufacturers' instructions. Cytotoxicity was evaluated by measuring the LDH activity in the medium.
Cytotoxicity was tested using the same procedure described above.

[6] = human, in vivo
OCT2 [7] = biological target: T1, OCT2; test: Inhibition of OCT2-mediated oxaliplatin transport in 100% human serum or HBSS containing 4% BSA (IC50,app); settings: for transporter preference in inhibiting oxaliplatin transport: serum or 4% BSA
OCT2 [8] = biological target: T1, OCT2; test: Inhibition of OCT2-mediated ASP+ uptake (Kido et al., Giacomini group); settings: human, cell line expressing human OCT2 (cell line not given), probe ASP+ 5 μM
[9] = test system: cells co-expressing OCT2 and MATE1; test: Intracellular oxaliplatin content in cells co-expressing OCT2 and MATE1; format: cell-based; settings: oxaliplatin 100 μM in 4% BSA HBSS, 90 min
Excerpt: In most naturally occurring cells, uptake transporters co-exist with efflux transporters. It is the interplay between the uptake and efflux transporters that determines the net intracellular accumulation of a substrate. One example is in the proximal tubule epithelial cells in the kidney, where the basolaterally expressed transporters, mainly OCT2, work in concert with the apically expressed MATE1 and MATE2K [5]. […] Cells with single expression of OCT2 or GFP mock were also used as a control.

HT-29 cells = test: Anti-proliferation study (SRB assay) in HT-29 cells; settings: co-treatment; FIG. 11
Method: as §1

[10] = Published clinical pharmacokinetic data; settings: from published Cmax and protein binding
[11] = test system: Balb/c mice exposed to chronic treatment with Oxaliplatin; test: Caudal nerve conduction study in chronic oxaliplatin neuropathy model; format: in vivo, mouse; settings: OXA 3.5 mg/kg iv, 8 cycles ± BFMD 30 mg/kg ip + 15 mg/kg iv
Method: The development of peripheral neuropathy after chronic administration of drugs was assessed by evaluating the nerve conduction velocity (NCV) along caudal and digital nerve using an electromyography apparatus (Myto2 ABN Neuro, Firenze, Italy). Caudal NCV was determined by placing a couple of recording needle electrodes at the base of the tail and a couple of stimulating needle electrodes 3.5 cm distally to the recording points. Similarly, the digital NCV was determined by placing the recording electrodes close to the ankle bone and the stimulating electrodes close to the fourth toe near the digital nerve. The intensity, duration and frequency of stimulation were set up in order to obtain optimal results. All the neurophysiological determinations were performed under standard conditions in a temperature-controlled room (22+/−2° C.) and the animal under isoflurane anesthesia along the whole procedure with continuous monitoring of vital signs.

[12] = Plasma levels of buflomedil and oxaliplatin in the chronic model; format: in vivo, mouse; settings: 15 minutes after the 8th cycle
Method: At baseline (before drug treatment) and at the end of treatment, caudal nerve conduction study (NCS), behavioral tests (Dynamic and Cold Plate), histopathology study were performed. Serum samples were collected at the end of treatment.

[13] = test system: Balb/c mice exposed to chronic treatment with Oxaliplatin; test: Cold Plate Test in chronic oxaliplatin neuropathy model; format: in vivo, mouse; settings: OXA 3.5 mg/kg iv ± BFMD 30 mg/kg ip + 15 mg/kg iv
Method: Cold Plate Test was used to determine the alterations in cold temperature related pain perception and their changes due to pharmacological treatment. Cold Plate Test was performed by using an apparatus (35100—Hot/Cold Plate. Ugo Basile instruments) composed by a Plexiglas cylinder and a thermostatic plate, able to reach variable temperatures. The mice were placed on the plate set at +4° C., free to move and walk. Two blinded experimenters simultaneously determine the number of pain signs (e.g. jumping, licking, etc.) in a trial of 5 minutes.

[14] = test system: Balb/c mice exposed to chronic treatment with Oxaliplatin; test: Dynamic Plantar Aesthesiometer Test in chronic oxaliplatin neuropathy model; format: in vivo, mouse; settings: OXA 3.5 mg/kg iv, 8 cycles ± BFMD 30 mg/kg ip + 15 mg/kg iv
Method: The Dynamic Plantar Aesthesiometer Test was used to determine the alterations in mechanical pain perception and their changes due to pharmacological treatment. Mice were accustomed to the device 3 days before performing the tests after a 1 hour acclimatization period followed by testing. The mechanical nociceptive threshold was assessed using a Dynamic Aesthesiometer Test (model 37450, Ugo Basile Biological Instruments, Comerio. Italy), which generated a linearly increasing mechanical force. At each time point, after the acclimatization period, a servo-controlled mechanical stimulus (a pointed metallic filament, 0.5-mm diameter) was applied to the plantar surface of the hind paw, which exerted a progressively increasing punctuate pressure, reaching up to 15 g within 15 seconds. The pressure evoking a clear voluntary hind-paw withdrawal response was recorded automatically and taken as representing the mechanical nociceptive threshold index. The mechanical threshold was always assessed alternatively on each side every 2 minutes on 3 occasions to yield a mean value. The results represent the maximal pressure (expressed in grams) tolerated by the animals. There was an upper limit cutoff of 30 seconds, after which the mechanical stimulus was automatically terminated.

[15] = cited from earlier work
[16] = test system: Balb/c mice exposed to chronic treatment with Oxaliplatin; test: Morphometry and histopathology of DRG neurons in chronic oxaliplatin neuropathy model; format: in vivo, mouse
Excerpt: The investigator was blind to the nerve and DRG conditions for these analyses. Three animals from each group were sacrificed four days after the last oxaliplatin dose. The left sciatic nerves and the L4-L5 DRGs were harvested and processed following previously reported protocols, resin embedded and sectioned for light and electron microscope analysis. For the light microscopy analysis, 1 μm semithin sections were stained with toluidine blue and examined using a Nikon Eclipse E200 light microscope (Nikon, Firenze, Italy). For the electron microscopy analysis, ultrathin sections (80 nm) counterstained with uranyl acetate and lead citrate, were examined with a Philips CM 10 transmission electron microscope (Philips, Eindhoven, Netherlands).
The investigator was blind to the experimental conditions of the tissue for these experiments. One micron thick semithin sections stained with toluidine blue were used for morphometric examination of the DRGs from control (n=3) and oxaliplatin-treated mice (n=3). (Renn et al. Molecular Pain 2011, 7:29). Only the cells where the nucleolus was included in the section plane of 50 μm-spaced out sections were considered to avoid the overlapping of the same cell bodies and they were analyzed with computer-assisted image analysis (ImageJ, NIH) to measure the soma and nucleolus size of at least 300 DRG neurons per mouse.

[17] = human, MDCK-II cells transfected with human OCT2, probe oxaliplatin 10 μM

Q: What does the source list for CN/C(=N/CCSCc1nc[nH]c1C)NC#N [Cimetidine]?
A: IC50 (OCT2 [1]): 9.71 µM; inhibition at 30 min, 5 μM (OCT2 [1]; human): 34%; inhibition at 30 min, 50 μM (OCT2 [1]; human): 83%; potency estimated from few doses at 30 min (OCT2 [1]; human, IC50 (μM) (substrate Oxaliplatin)): 9.7 µM; Inhibition % @ 20 μM (substrate ASP+) (OCT2 [2]): 43%; effect on anti-tumor potency of oxaliplatin in HepG2 (HepG2 cells): nor cimetidine; Plasma protein binding (%) [3]: 20%; IC50 (OCT2 [4]): 57.6 ± 6.9 µM; effect on oxaliplatin induced cytotoxicity in OCT2 expressing cells [5]: did not reduce oxaliplatin cytotoxicity; Plasma peak unbound concentration Cmax,u [6]: 9.60 µM; IC50 (OCT2 [7]; IC50,app (μM), apparent inhibition constant in 100% human serum or HBSS containing 4% BSA, OCT2-mediated oxaliplatin uptake): 36.8 µM; IC50 (OCT2 [7]; OCT2 IC50, app (μM), 100% human serum or HBSS containing 4% BSA, 20 μM or 100 μM oxaliplatin): 36.8 ± 13.6 µM; transporter preference in inhibiting oxaliplatin transport (OCT2 [7]): even more preference towards inhibiting oxaliplatin transport through MATE1; potency estimated from few doses (OCT2 [8]): 26.4 µM

Q: Which results are given for C#Cc1cccc(Nc2ncnc3cc(OCCOC)c(OCCOC)cc23)c1 [Erlotinib]?
A: inhibition at 30 min, 5 μM (OCT2 [1]; [17]): 93%; inhibition at 30 min, 50 μM (OCT2 [1]; [17]): 106%; cellular accumulation of oxaliplatin in cells co-expressing OCT2 and MATE1 [9]: reduced cellular accumulation of oxaliplatin; Mean Cmax ([3]; 150 mg po, day 24): 2120 ng/mL; Mean T1/2 ([3]; 150 mg po, day 24): 18.2 h; Mean Cmax ([3]; 150 mg po, single dose): 1140 ng/mL; Mean T1/2 ([3]; 150 mg po, single dose): 20 h; Plasma protein binding (%) [3]: 93%; Cmax ([3]; read-out: Mean Cmax, 150 mg po, day 24): 5.4 µM; Cmax ([3]; read-out: Mean Cmax, 150 mg po, single dose): 2.9 µM; Cmax ([3]; read-out: Plasma peak total concentration Cmax, published clinical pharmacokinetic data): 5.4 µM; effect on cisplatin anti-proliferation potency in HT-29 (HT-29 cells): ignorable impact on cisplatin cytotoxicity; cytotoxicity of the inhibitor itself ([5]; 6 μM, without oxaliplatin, FIG. 6B): showed cytotoxicity itself without adding oxaliplatin; effect on oxaliplatin induced cytotoxicity in OCT2 expressing cells [5]: its EC50 value could not be obtained due to an ambiguous fitting; Plasma peak unbound concentration Cmax,u [10]: 0.38 µM; transporter preference in inhibiting oxaliplatin transport (OCT2 [7]): potent in suppressing OCT1 as well as OCT2

Q: What does the source list for O=C(O)C(=O)O.[NH-][C@@H]1CCCC[C@H]1[NH-].[Pt+2] [Oxaliplatin]?
A: caudal nerve action potential amplitude [11]: significant decrease in caudal amplitude; caudal nerve conduction velocity [11]: significant reduction in caudal nerve conduction velocity vs. control mice; pharmacokinetic interaction between BFMD and OXA (plasma levels) [12]: unaffected by the presence of BFMD; Cold Plate Test pain signs after third injection ([13]; 3 cycles): significant increase in pain signs versus CTRL and all groups of treatment; Cold Plate Test pain signs at the end of treatment (eight injections) ([13]; 8 cycles): significant increase in pain signs versus CTRL and BFMD; mechanical allodynia, Dynamic Aesthesiometer Test at the end of treatment [14]: development of mechanical allodynia with a reduction in the latency until withdrawal; patients with severe PN (Grade 3 or higher) ([15]; cumulative doses 510-765 mg/m^2): up to 10%; patients developing severe PN ([15]; cumulative doses above 1000 mg/m^2, Argriou 2012): approximately 50%; area of DRG neuron cell bodies and nucleoli (morphometry) ([16]; OXA 3.5 mg/kg iv twice a week for 4 weeks (8 cycles) ± BFMD 30 mg/kg ip + 15 mg/kg iv): significant decrease in the area; DRG histopathology (light and electron microscopy) ([16]; OXA 3.5 mg/kg iv, 8 cycles ± BFMD 30 mg/kg ip + 15 mg/kg iv): high incidence of multinucleolated cell bodies with eccentric nucleoli
